PMC8224802 (Pharmaceutics, 2021)
Read-outs that look alike come from different tables or passages of the source.

Columns and labels:
[1] = Microsomal protein binding by rapid equilibrium dialysis (HLM)
Experimental: (§1) A 200 μL spiked samples and 400 μL PBS were placed into the “sample” and “buffer” chambers of the RED device, respectively. After 4-h incubation to equilibrate between the buffer and plasma compartments, the RED plate was sampled from both compartments. The samples were matrix-matched for analysis by addition of either diluted plasma or buffer; (a) blank diluted plasma added to the buffer samples and (b) blank buffer added to the diluted plasma sample, at a ratio of 50:50 v/v. The unbound fractions in microsomes and diluted plasma were determined by dividing the analyte/IS peak area ratios of the (a) sample by those of the (b) sample. The unbound fraction in diluted plasma (fu,d) was converted to the unbound fraction in undiluted plasma (fu) using a Kalvass equation as below (DF: dilution factor). (1) fu=1/DF/[(1/fu,d)−1]+1/DF

[2] = Microsomal protein binding by rapid equilibrium dialysis (RLM); assay type: in vitro ADME, rat
Experimental: as §1

[3] = Blood-to-plasma concentration ratio (rat whole blood); assay type: in vitro ADME; conditions: RPG and QCT 5 μM each
Experimental: (§2) A plasma sample was obtained by centrifugation of the blood sample at 2000× g for 5 min.

[4] = Blood-to-plasma concentration ratio (human whole blood); assay type: in vitro ADME; conditions: RPG and QCT 5 μM each
Experimental: as §2

[5] = In vitro microsomal metabolism of RPG (disappearance) in RLM; assay type: in vitro ADME, rat; conditions: RLM 0.3 mg/mL, 1–500 μM RPG, Michaelis–Menten fit
Experimental: (§3) At 0, 30, and 60 min after starting the metabolic reaction, a 50 μL aliquot of the incubation mixture was sampled and transferred to a clean 1.5-mL microcentrifuge tube containing 150 μL of ice-cold acetonitrile to terminate the metabolic reaction.
(§4) The intrinsic metabolic clearance (CLint) was calculated as Vmax/Km. […] Max and Min are the initial and final Y values, respectively, and the power P represents the Hill coefficient. […] Vmax and Km are the same as those defined in Equation (2). The parameter α is indicative of the inhibition type. The mixed model is a general equation that includes competitive, uncompetitive, and noncompetitive inhibition as special cases. When α = 1, the mixed model is identical to a noncompetitive inhibition. When α is very large (α→∞) or very small (α→0), the mixed model becomes identical to competitive inhibition or uncompetitive inhibition, respectively.

[6] = In vitro microsomal metabolism of RPG (disappearance) in HLM; assay type: in vitro ADME, human; conditions: for Km: human, human liver microsomes
Experimental: as §3, §4

[7] = tested on: microsomal metabolism of RPG in RLM; assay: In vitro inhibition of RPG metabolism by QCT in RLM; assay type: in vitro ADME, rat; conditions: RLM
Experimental: (§5) The intrinsic metabolic clearance (CLint) was calculated as Vmax/Km. […] The parameter α is indicative of the inhibition type. The mixed model is a general equation that includes competitive, uncompetitive, and noncompetitive inhibition as special cases. When α = 1, the mixed model is identical to a noncompetitive inhibition. When α is very large (α→∞) or very small (α→0), the mixed model becomes identical to competitive inhibition or uncompetitive inhibition, respectively.

[8] = tested on: microsomal metabolism of RPG in HLM; assay: In vitro inhibition of RPG metabolism by QCT in HLM; assay type: in vitro ADME, human; conditions: HLM
Experimental: as §5

[9] = In vivo intravenous pharmacokinetic study of RPG without or with QCT in rats; design: species or system Sprague-Dawley rats; conditions: for AUC / clearance / half-life / Vd: Sprague-Dawley, rat, plasma, 0.4 mg/kg; for Vd: read-out: Vss
Experimental: Rats were anesthetized via intramuscular injection of 10 mg/kg zoletil. The femoral vein and artery of the rats were cannulated using a polyethylene tube (BD Medical, Franklin Lakes, NJ, USA). […] The vehicle solutions for the intravenous and oral doses were composed of PEG 400 and aqueous 0.3% CMC solution (50:50 v/v). Approximately 300 μL of blood was collected via the femoral artery at 0, 1, 5, 15, 30, 60, 90, 120, 180, and 240 min after intravenous injection and at 10, 20, 30, 45, 60, 90, 120, 180, and 240 min after oral administration.
Non-compartmental analysis (WinNonlin, version 3.1, NCA200 and 201; Certara, Inc., Princeton, NJ, USA) was conducted to estimate the following pharmacokinetic parameters: total area under the plasma concentration–time curve from time zero to time infinity (AUC); total body clearance (CL, calculated as dose/AUC); terminal half-life (t1/2); and apparent volume of distribution at steady state (Vss). For comparison, the extent of absolute oral bioavailability (F; expressed as percent of dose administered) was calculated by dividing the dose-normalized AUC after oral administration by the dose-normalized AUC after intravenous injection. The peak plasma concentration (Cmax) and time to reach Cmax (Tmax) were obtained directly from the measured experimental data.

[10] = In vivo oral pharmacokinetic study of RPG without or with QCT in rats; design: species or system Sprague-Dawley rats; conditions: for bioavailability: read-out: F (absolute oral bioavailability)
Experimental: Rats were anesthetized via intramuscular injection of 10 mg/kg zoletil. The femoral vein and artery of the rats were cannulated using a polyethylene tube (BD Medical, Franklin Lakes, NJ, USA). […] The vehicle solutions for the intravenous and oral doses were composed of PEG 400 and aqueous 0.3% CMC solution (50:50 v/v).
For comparison, the extent of absolute oral bioavailability (F; expressed as percent of dose administered) was calculated by dividing the dose-normalized AUC after oral administration by the dose-normalized AUC after intravenous injection. The peak plasma concentration (Cmax) and time to reach Cmax (Tmax) were obtained directly from the measured experimental data.

[11] = humans; cited from earlier work
[12] = RPG 0.4 mg/kg iv, QCT 25 mg/kg iv
[13] = iv, RPG 0.4 mg/kg iv with QCT 25 mg/kg iv
[14] = iv, RPG 0.4 mg/kg iv, RPG alone
[15] = Sprague-Dawley, rat, plasma, po, 0.4 mg/kg, rats, RPG 0.4 mg/kg oral with QCT 100 mg/kg oral
[16] = Sprague-Dawley, rat, plasma, po, 0.4 mg/kg, rats, RPG 0.4 mg/kg oral, RPG alone
[17] = rats, RPG 0.4 mg/kg oral with QCT 100 mg/kg oral
[18] = rats, RPG 0.4 mg/kg oral, QCT 100 mg/kg oral
[19] = rats, RPG 0.4 mg/kg oral, RPG alone

With CCOc1cc(CC(=O)N[C@@H](CC(C)C)c2ccccc2N2CCCCC2)ccc1C(=O)O [RPG, Repaglinide] the “Change of fuMIC of RPG by the presence of QCT” value ([1]; HLM, RPG and QCT 5 μM each) was “not significantly altered”, the fraction unbound at 4 h, 5 μM ([1]; human, liver microsomes) was 0.62 ± 0.152 and the “Change of fuMIC of RPG by the presence of QCT” value ([2]; RLM, RPG and QCT 5 μM each) was “not significantly altered”. The fraction unbound at 4 h, 5 μM ([2]; rat, liver microsomes, read-out: fuMIC (unbound fraction in liver microsomes)) was 0.671 ± 0.009, the “Change of RB of RPG by the presence of QCT” value [3] was “not significantly altered” and the “Change of RB of RPG by the presence of QCT” value [4] was “not significantly altered”. The “Vmax, metabolism of RPG” value [5] was 3070 ± 960 pmol/min/mg protein, the “Vmax, metabolism of RPG” value ([6]; HLM 0.3 mg/mL, 1–500 μM RPG, Michaelis–Menten fit) was 2850 ± 417 pmol/min/mg protein and the Km ([6]; Km, metabolism of RPG, HLM 0.3 mg/mL, 1–500 μM RPG, Michaelis–Menten fit) was 27 to 69.4 µM. For the same molecule, the Km ([6]; Table S3, source Figure 3, read-out: Km used for estimation of R) was 27 µM, the “Km of RPG metabolism in the Ki estimation study” value (shortened to “Km of RPG metabolism”) ([7]; QCT 0 μM) was 53 µM and the “Km of RPG metabolism” value ([7]; QCT 200 μM) was 81 µM. For the same molecule, the “Km of RPG metabolism” value ([8]; QCT 0 μM) was 23 µM, the “Km of RPG metabolism” value ([8]; QCT 200 μM) was 111 µM and the “Hepatic availability (FH)” value ([9]; 1 − EH) was 0.818–0.886. For the same molecule, the AeU ([9]; RPG 0.4 mg/kg iv with QCT 25 mg/kg iv) was 1.32 ± 0.88 % of dose, the “AUC of RPG higher with concurrent QCT than in control rats” value [9, 12] was 83.4% and the “CL of RPG lower with concurrent QCT than in control rats” value [9, 12] was 44.9%. For the same molecule, the “Difference in Vss of RPG between QCT and control groups” value [9, 12] was “no significant differences”, the “t1/2 of RPG higher with concurrent QCT than in control rats” value [9, 12] was 40.8% and the AeU ([9]; RPG 0.4 mg/kg iv, RPG alone) was 1.60 ± 0.77 % of dose. The “Increase of AUC of intravenous RPG after concurrent QCT” value ([9]; RPG iv with QCT iv vs RPG alone) was 1.83 fold, the AUC [9, 13] was 1550 ng·h/mL and the clearance [9, 13] was 4.36 ± 0.54 mL/min/kg. The half-life [9, 13] was 57.4 ± 10.6 min, the Vd [9, 13] was 0.269 ± 0.025 L/kg and the AUC [9, 14] was 845 ng·h/mL. The clearance [9, 14] was 7.92 ± 0.47 mL/min/kg, the half-life [9, 14] was 40.8 ± 4.2 min and the Vd [9, 14] was 0.293 ± 0.018 L/kg. The “Urinary and fecal excretion of RPG administered intravenously” value ([9]; iv) was ≤ 1.60 % of the dose, the “Hepatic clearance CLH (blood clearance, CL/RB)” value ([9]; iv RPG alone, assuming exclusive hepatic metabolism) was 9.11 mL/min/kg and the AUC [10, 15] was 803 ng·h/mL. The Cmax [10, 15] was 238 ± 76 ng/mL, the half-life [10, 15] was 148 ± 49 min and the bioavailability [10, 15] was 95.1%. The Cmax [10, 16] was 129 ± 33 ng/mL, the half-life [10, 16] was 139 ± 66 min and the bioavailability [10, 16] was 50.7%. For the same molecule, the Tmax ([10]; Sprague-Dawley, rat, plasma, po, 0.4 mg/kg, read-out: Tmax, median (range) (converted)) was 45 min, the AeGI [10, 17] was 2.90 ± 2.50 % of dose and the AeU [10, 17] was 0.371 ± 0.336 % of dose. The “Tmax, median (range)” value [10, 17] was 45 (30–60) min, the “AUC of RPG higher with concurrent QCT than in control rats” value [10, 18] was 87.6% and the “Cmax of RPG higher with concurrent QCT than in control rats” value [10, 18] was 84.2%. For the same molecule, the AeGI [10, 19] was 3.41 ± 1.65 % of dose, the AeU [10, 19] was 0.458 ± 0.441 % of dose and the “Increase of AUC of orally administered RPG by oral QCT” value ([10]; rats, RPG oral with QCT 100 mg/kg oral vs RPG alone) was 1.88 fold. For the same molecule, the “Intestinal availability (FG)” value ([10]; rats, from F = Fabs × FG × FH with Fabs assumed 1) was 0.572–0.620, the “Fecal excretion of oral RPG” value ([10]; rats, oral) was 2.21–5.78 % of the dose administered and the “F of RPG” value [11] was “approximately 62.5%”.
